Data from publication PMC9549030, “Structural basis for specific inhibition of the deubiquitinase UCHL1” (Nature Communications, 2022).
Values joined by “and” are separate entries in the source; they are usually repeats but may differ in a detail not shown here. Equal entries are not always repeated. Where two headings read alike, the source gives them in different places.

Legend:
[1] = tested on: monoubiquitin in U-87 MG cells; experiment: Quantification of monoubiquitin levels; assay type: cell-based, human; conditions: 48 h; for monoubiquitin intensity normalized to DMSO (= 1): independent experiments
Experimental: U-87 MG cells (5 × 10^5/well) were seeded in six-well plates and cultivated for 8 h. Cells were transfected with siRNA as described above. On the next day, cells were cultured in fresh media supplemented with either compounds (final conc. 5 µM) or DMSO, where indicated, for a further 48 h. The media was changed every 24 h to a fresh medium supplemented with compounds (final conc. 5 µM) or DMSO. […] Monoubiquitin band intensities were first normalized to α-tubulin or total protein (Fast Green FCF, TCI) and subsequently normalized to the intensities of monoubiquitin bands in the sample treated with DMSO or siScr (where no DMSO was used) which was set to “1”.

UCHL1 [2] = target: T1, UCHL1 (Homo sapiens, UniProt P09936); experiment: Thermal shift assay; assay type: binding; conditions: UCHL1 1 µM, 1 h, replicates
T1 sequence (P09936 1-223): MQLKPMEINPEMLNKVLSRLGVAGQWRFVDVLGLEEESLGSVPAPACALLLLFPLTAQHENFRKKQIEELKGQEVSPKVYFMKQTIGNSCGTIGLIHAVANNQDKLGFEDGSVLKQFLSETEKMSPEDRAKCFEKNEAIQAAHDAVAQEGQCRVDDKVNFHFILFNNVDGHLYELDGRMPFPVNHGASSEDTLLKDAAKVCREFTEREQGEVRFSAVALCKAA
How it was run: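 Protein at 4 µM (4x stock) in PBS with 5 mM DTT was mixed 1:1 with 4x compound and incubated 1 h. SYPRO Orange was then added. Thermal denaturation was monitored over 20–90 °C in 0.3 °C steps with a 5 s hold before each read.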

UCHL3 A11I = target: T2, UCHL3 A11I (Homo sapiens, UniProt P15374, A11I); experiment: Ub-Rhodamine (Ubiquitin rhodamine cleavage) assay; assay type: biochemical
T2 sequence (P15374 1-230 A11I): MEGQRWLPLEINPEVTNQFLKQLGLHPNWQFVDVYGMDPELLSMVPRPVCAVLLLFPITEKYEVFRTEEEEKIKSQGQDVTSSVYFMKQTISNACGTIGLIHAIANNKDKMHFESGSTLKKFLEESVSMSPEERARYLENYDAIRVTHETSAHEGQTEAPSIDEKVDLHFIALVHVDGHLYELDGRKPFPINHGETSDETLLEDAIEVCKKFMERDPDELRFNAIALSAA

HEK293 cells = experiment: Cellular activity-based protein profiling (in-gel fluorescence); assay type: cell-based, human; conditions: 0.1 and 1 µM; 24 h
Experimental: Cells (7 × 10^5) were seeded in six-well plates and cultivated for 48 h. Cells were then incubated in fresh DMEM supplemented with compound or DMSO for 24 h. The cells were washed with ice-cold PBS and harvested in 200 µL ABP lysis buffer as described above. […] Samples were separated by SDS-PAGE and analyzed for fluorescent protein-compound conjugates as described above.

UCHL1 [3] = target: T1, UCHL1; experiment: kobs/[I] kinetic assay; assay type: biochemical; set-up: kobs: unit not given here; conditions: Figure 3c right panel
Experimental: Reactions were performed in 384 well plates as above. Compound (5 µL of a 4x stock in reaction buffer H supplemented with 2.5 mM TCEP; varying final concentrations ranging from 78 nM to 200 µM) and Ub-Rhodamine 110 (5 µL of a 4x stock in buffer H supplemented with 2.5 mM TCEP; final concentration: 50 nM) were mixed in a 1:1 ratio.

UCHL3 A11I,L168F = experiment: Intact protein mass spectrometry; assay type: binding, human; conditions: enzyme 3 µM; compound 10 µM; 1 h
From the text: Spectra were deconvoluted with ProMass (Enovatia).

UCHL1 [4] = target: T1, UCHL1; experiment: Jump-dilution assay; assay type: biochemical; conditions: 625 nM GK13S 2 h, then diluted 100-fold
Experimental: Reactions were performed in similar 384 plates as above in a final volume of 20 µL. […] Parts of this solution were diluted at 1:50 at different time points with buffer H. All samples were then diluted 1:2 with 100 nM Ub-Rho (buffer H, final concentration in well 50 nM) and fluorescence was recorded as described above.

UCHL1 [5] = target: T1, UCHL1; experiment: Ub-Rhodamine (Ubiquitin rhodamine cleavage) assay; assay type: biochemical; conditions: for normalized UCHL1 activity: independent experiments
[6] = 1 h, read-out: UCHL1 activity, data point mean

## C#CCCCNC(=O)c1ccc(-n2cnc(NC(=O)[C@H]3CCN(C#N)C3)c2)cc1 [GK13S]
[1]; 5 µM
  levels of free monoubiquitin (western blot): reduced
[1]; siSCr, 5 µM
  monoubiquitin intensity normalized to DMSO (= 1): 0.576 and 0.6744 and 0.83 and 0.6532
[1]; siUCHL3, 5 µM
  monoubiquitin intensity normalized to DMSO (= 1): 0.757 and 0.6937 and 0.5404 and 0.5552 and 0.8593 and 0.6907
UCHL1 [2]; compound 1.25 µM
  melting temperature (Tm) of UCHL1: 59.1 and 58.5
UCHL1 [2]; compound 2.5 µM
  melting temperature (Tm) of UCHL1: 58.8 and 59.1
UCHL1 [2]; compound 5 µM
  melting temperature (Tm) of UCHL1: 59.1
UCHL3 A11I
  IC50: 32000 ± 7000 nM
HEK293 cells
  labeling of endogenous proteins in intact cells: strong signal for a band of ~30 kDa
UCHL1 [3]; c(GK13S) 0.078125
  kobs: 0.000109
UCHL1 [3]; c(GK13S) 0.15625
  kobs: 0.000197
UCHL1 [3]; c(GK13S) 0.3125
  kobs: 0.000258
UCHL1 [3]; c(GK13S) 0.625
  kobs: 0.000456
UCHL1 [3]; c(GK13S) 1.25
  kobs: 0.000882
UCHL1 [3]; c(GK13S) 2.5
  kobs: 0.001558
UCHL3 A11I,L168F
  protein species observed after compound treatment: + 1x GK13S
UCHL1 [4]
  reversibility of inhibition after jump dilution: inhibition was sustained
UCHL1 [5]; [6]
  remaining activity at 0.000610352 µM: 98.8%
  remaining activity at 0.0012207 µM: 96.5%
  remaining activity at 0.00244141 µM: 95%
  remaining activity at 0.00488281 µM: 91.2%
  remaining activity at 0.00976562 µM: 85.3%
  remaining activity at 0.0195312 µM: 76.8%
  remaining activity at 0.0390625 µM: 65.7%
  remaining activity at 0.078125 µM: 44.1%
  remaining activity at 0.15625 µM: 23.2%
  remaining activity at 0.3125 µM: 8.06%
  remaining activity at 0.625 µM: 3.5%
  remaining activity at 1.25 µM: 2.31%
  remaining activity at 2.5 µM: 3.03%
  remaining activity at 5 µM: 1.18%
  remaining activity at 10 µM: 0.488%
UCHL1 [5]; 1 h preincubation, mean ± SD of independent experiments, read-out: IC50 (UCHL1)
  IC50: 50 nM
UCHL1 [5]; Fig. 6b, catalytic domain, 1 h preincubation with GK13S, read-out: IC50 (UCHL1)
  IC50: 87 ± 8 nM
UCHL1 [5]; GK13S 0.610352 nM, 1 h preincubation
  normalized UCHL1 activity: 0.9506 and 0.9879 and 1.014 and 0.9975 and 0.9955
UCHL1 [5]; GK13S 1.2207 nM, 1 h preincubation
  normalized UCHL1 activity: 0.9497 and 0.9646 and 1.019 and 1.0024 and 0.9988
UCHL1 [5]; GK13S 2.44141 nM, 1 h preincubation
  normalized UCHL1 activity: 0.9185 and 0.9495 and 1.017 and 0.9974 and 0.9924
UCHL1 [5]; GK13S 4.88281 nM, 1 h preincubation
  normalized UCHL1 activity: 0.8798 and 0.9115 and 1.0474 and 0.9893 and 0.9704
UCHL1 [5]; GK13S 9.76562 nM, 1 h preincubation
  normalized UCHL1 activity: 0.8185 and 0.8529 and 0.9722 and 1.013 and 0.9579
UCHL1 [5]; GK13S 19.5312 nM, 1 h preincubation
  normalized UCHL1 activity: 0.7093 and 0.7679 and 0.9238 and 0.9667 and 0.9242
UCHL1 [5]; GK13S 39.0625 nM, 1 h preincubation
  normalized UCHL1 activity: 0.5709 and 0.6568 and 0.8808 and 0.9371 and 0.8799
UCHL1 [5]; source data Fig. 3b, 1 h preincubation, read-out: Averaged IC50s from independent experiments (single experiments)
  IC50: 36 nM and 65 nM and 49 nM
